Assay results as given in US20040228872A1 (priority 2003, published 2004).

Experiments:
foreleg flexor muscles = conditions: mouse, in vivo
[1] = system: orbicularis oculi muscles; conditions: guinea pig, in vivo
[2] = in vivo; cited from earlier work

Compound: O=c1c(-c2ccc(O)cc2)coc2cc(O)cc(O)c12 [genistein, 5,7-dihydroxy-3-(4-hydroxyphenyl)-4H-1-benzopyran-4-one]
- Grip strength recovery (percent of untreated baseline grip strength) (foreleg flexor muscles): retarded
- Delay of time to 50% recovery of blinks (blink amplitude) [1]: approximately 10 days
- Recovery of blinks after surgery [1]: full recovery within a week
- Reduction of blink amplitude after surgery [1]: ≤ 10%
- Tolerability of dietary intake [2]: without obvious ill effects
